Results reported in patent publication US7807704B2, “Bicyclic, nitrogen-containing compounds modulating CXCR4 and/or CCXCKR2” (Chemocentryx, Inc., priority 2006, dated 2010).

Key:
[1] = biological target: T1, CXCR4 (Homo sapiens, UniProt P61073); assay: chemotaxis assay or 125I SDF-1α binding assay for CXCR4; conditions: first or only activity listed, read-out: CXCR4 activity (IC50 class)
T1 construct: all endogenously expressing CXCR4; endogenous in cells; host or cells: CEM-Nkr, CCRF-CEM, Jurkat, Molt-4; IL-2 stimulated human lymphocytes
T1 sequence (P61073 whole entry): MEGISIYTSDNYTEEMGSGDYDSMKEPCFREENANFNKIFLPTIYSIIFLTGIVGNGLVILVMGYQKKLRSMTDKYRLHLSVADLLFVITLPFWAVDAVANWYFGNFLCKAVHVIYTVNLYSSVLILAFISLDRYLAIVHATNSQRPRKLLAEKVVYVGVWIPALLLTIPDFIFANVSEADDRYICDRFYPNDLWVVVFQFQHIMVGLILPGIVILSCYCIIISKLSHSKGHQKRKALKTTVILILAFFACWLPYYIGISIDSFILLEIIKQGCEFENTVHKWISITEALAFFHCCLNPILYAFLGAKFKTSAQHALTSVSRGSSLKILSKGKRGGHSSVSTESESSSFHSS
Description: CEM-Nkr, CCRF-CEM (ATCC #CCL-119), Jurkat (ATCC #TIB-152), Molt-4 (ATCC# CRL-1582), cell lines, all endogenously expressing CXCR4, were used in compound screening and subsequent assays. These cell lines were cultured as a suspension in RPMI-1640 medium supplemented with 2 mM L-glutamine, 1.5 g/L sodium bicarbonate, 4.5 g/L glucose, 10 mM HEPES, 1 mM sodium pyruvate, and 10% FBS. Cells were grown under 5% CO2/95% air, 100% humidity at 37° C. and subcultured twice weekly at 1:6 (cells were cultured at a density range of 1×10^5 to 2×10^6 cells/mL) and harvested at 1×10^6 cells/mL. • b) Isolated Human IL-2 Stimulated Lymphocytes
Cells were centrifuged and resuspended in assay buffer (20 mM HEPES pH 7.1, 140 mM NaCl, 1 mM CaCl2, 5 mM MgCl2, and with 0.2% bovine serum albumin) to a concentration of 4×10^6 cells/mL for cell lines. Binding assays were set up as follows. […] Then 0.1 mL of ^125I labeled SDF-1α (obtained from Perkin Elmer Life Sciences, Boston, Mass.) diluted in assay buffer to a final concentration of ˜50 pM, yielding ˜30,000 cpm per well, was added, the plates sealed and incubated for approximately 3 hours at 4° C. on a shaker platform. Reactions were aspirated onto GF/B glass filters pre-soaked in 0.3% polyethyleneimine (PEI) solution, on a vacuum cell harvester (Packard Instruments; Meriden, Conn.). Scintillation fluid (40 μl; Microscint 20, Packard Instruments) was added to each well, the plates were sealed and radioactivity measured in a Topcount scintillation counter (Packard Instruments). Control wells containing either diluent only (for total counts) or excess SDF1 a (1 μg/mL, for non-specific binding) were used to calculate the percent of total inhibition for compound. The computer program Prism from GraphPad, Inc. (San Diego, Calif.) was used to calculate IC50 values. IC50 values are those concentrations required to reduce the binding of radiolabeled SDF-1α to the receptor by 50%. (For further descriptions of ligand binding and other functional assays, see Dairaghi, et al., J. Biol. Chem. 274:21569-21574 (1999), Penfold, et al., Proc. Natl. Acad. Sci. USA. 96:9839-9844 (1999), and Dairaghi, et al., J. Biol. Chem. 272:28206-28209 (1997)).
Chemotaxis assays were performed using 5 μm pore polycarbonate, polyvinylpyrrolidone-coated filters in 96-well chemotaxis chambers (Neuroprobe; Gaithersburg, Md.) using chemotaxis buffer (Hank's balanced salt solution (HBSS) and 1% FBS). CXCR4 ligand (i.e., SDF1a, R&D Systems; Minneapolis, Minn.) are use to evaluate compound mediated inhibition of CXCR4 mediated migration. Other chemokines (i.e., TECK; R&D Systems; Minneapolis, Minn.) are used as specificity controls. The lower chamber was loaded with 29 μl of chemokine (i.e., 0.1 nM SDF1a); the top chamber contained 50,000 Jurkat cells or IL-2 lymphocytes in 20 μl. The chambers were incubated 2 hours at 37° C., and the number of cells in the lower chamber quantified either by direct cell counts in five high powered fields per well or by the CyQuant assay (Molecular Probes), a fluorescent dye method that measures nucleic acid content and microscopic observation.
To evaluate small organic molecules that prevent the CXCR4 from binding ligand, an assay was employed that detected radioactive ligand (i.e, SDF-1) binding to cells expressing CXCR4 on the cell surface (for example, CEM-Nkr cells). For compounds that inhibited binding, whether competitive or not, fewer radioactive counts are observed when compared to uninhibited controls.
Equal numbers of cells were added to each well in the plate. The cells were then incubated with radiolabeled […]. Unbound ligand was removed by washing the cells, and bound ligand was determined by quantifying radioactive counts. Cells that were incubated without any organic compound gave total counts; non-specific binding was determined by incubating the cells with unlabeled ligand and labeled ligand. Percent inhibition was determined by the equation: […]

[2] = biological target: T2, CCXCKR2 (CXCR7) (Homo sapiens, UniProt P25106); assay: displacement of 125I SDF-1 from CCXCKR2 (CXCR7) on MCF-7 and/or MDA-MB-435S cells; assay type: binding; conditions: second activity listed in the cell; read-out: CXCR7 activity (IC50 class)
T2 construct: expressed in transfected cells; host or cells: MDA-MB-435S transfected with pcDNA3.1(+)-hRDC1, and/or MCF-7 (endogenous receptor)
T2 sequence (P25106 whole entry): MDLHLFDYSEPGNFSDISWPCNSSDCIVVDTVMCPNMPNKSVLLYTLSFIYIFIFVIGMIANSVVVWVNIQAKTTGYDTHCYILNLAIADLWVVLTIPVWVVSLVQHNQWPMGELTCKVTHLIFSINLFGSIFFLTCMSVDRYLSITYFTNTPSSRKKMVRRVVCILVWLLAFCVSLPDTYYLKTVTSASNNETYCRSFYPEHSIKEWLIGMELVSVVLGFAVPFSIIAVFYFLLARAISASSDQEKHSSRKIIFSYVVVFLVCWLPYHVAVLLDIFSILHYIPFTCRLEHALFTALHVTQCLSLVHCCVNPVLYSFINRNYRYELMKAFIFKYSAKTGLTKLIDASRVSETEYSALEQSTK
Description: The ability of the compounds to displace the labeled chemokine from the CCXCKR2 receptor sites at multiple concentrations was then determined with the screening process.
Reagents and Cells. ^125I-labeled SDF-1 was purchased from Perkin-Elmer Life Sciences, Inc. (Boston, Mass.). The MCF-7 (adenocarcinoma; mammary gland) cell line was obtained from the American Type Culture Collection (Manassas, Va.) or and was cultured in DMEM (Mediatech, Herndon, Va.) supplemented with 10% fetal bovine serum (FBS) (HyClone Logan, Utah) and bovine insulin (0.01 mg/mL) (Sigma, St. Louis, Mo.) at 37° C. in a humidified incubator at a 5% CO2/air mixture. CCXCKR2 transfected MDA-MB-435S were produced as described below. MDA-MB-435S human breast cancer line, was purchased from ATCC, and cultured in DMEM/10% FBS medium. The complete coding sequence of the gene encoding CCXCKR2 (a.k.a. CXCR7, hRDC1), was isolated from MCF-7 cells using μMACs mRNA isolation kit (Miltenyi Biotec, Auburn, Calif.). DNA contamination was removed by DNase digestion via RNeasy columns (Qiagen, Inc., Valencia, Calif.) and cDNA was generated using GeneAmp RNA PCR Core Kit (Applied Biosystems, Foster City, Calif.). PCR of cDNA samples was performed using Taq PCR Master Mix kit (Qiagen, Inc.) and hRDC1 primers harboring 5′ and 3′ NotI sites (hRDC1F 5′ […]-3′ (SEQ ID NO:11, hRDC1R 5′-[…]-3′) Not I digested PCR product was ligated into Not I digested pcDNA3.1 (+)(Invitrogen, Carlsbad, Calif.) and screened for orientation and sequence confirmed. Plasmid DNA was then isolated from overnight bacterial cultures by Maxiprep (Qiagen, Inc.). Plasmid DNA (10 μg) was added to MDA-MB-435s cells and cells were electroporated (0.22 kV, 960 uF) via Gene Pulser (Biorad laboratories, Hercules, Calif.). 48 hr post-electroporation, cells were transferred to selection medium (1000 ug/ml G418).
Binding Analysis. Target compounds were tested to determine their ability to bind with CCXCKR2 sites on MCF-7 and/or MDA-MB-435S cells. Efficiency-maximized radioligand binding using filtration protocols as described in Dairaghi D J, et al., HHV8-encoded vMIP-I selectively engages chemokine receptor CCR5. Agonist and antagonist profiles of viral chemokines., J. Biol. Chem. 1999 Jul. 30; 274(31): 21569-74 and Gosling J, et al., Cutting edge: identification of a novel chemokine receptor that binds dendritic cell-and T cell-active chemokines including ELC, SLC, and TECK., J. Immunol. 2000 Mar. 15; 164(6):2851-6 was used.
In these assays, MCF-7 and/or MDA-MB-435S cells were interrogated with the target compounds and the ability of these compounds to displace ^125I radiolabeled SDF-1 was assessed using the protocol described in Dairaghi and Gosling. The target compounds were added to the plate to the indicated concentration and were then incubated with cells followed by the addition of radiolabeled chemokine (^125I SDF-1) for 3 hr at 4° C. in the following binding medium (25 mM HEPES, 140 mM NaCl, 1 mM CaCl2, 5 mM MgCl2 and 0.2% bovine serum albumin, adjusted to pH 7.1). All assays were then incubated for 3 hrs at 4° C. with gentle agitation. Following incubation in all binding assays, reactions were aspirated onto PEI-treated GF/B glass filters (Packard) using a cell harvester (Packard) and washed twice (25 mM HEPES, 500 mM NaCl, 1 mM CaCl2, 5 mM MgCl2, adjusted to pH 7.1). Scintillant (MicroScint 10, Packard) was added to the wells, and the filters were counted in a Packard Topcount scintillation counter. Data were analyzed and plotted using Prism (GraphPad Prism version 3.0a for Macintosh, GraphPad Software, www.graphpad.com).

IC50 [1] [µM]	IC50 [2] [µM]	Compound
< 1	1 to 10	Cc1ccc(-c2ccc3ccn(CC(=O)NCCN(C)C4CCCCC4)c3c2)cc1 [No 24]
< 1	1 to 10	COc1ccc(-c2ccc3ccn(CC(=O)NCCN(C)C4CCCCC4)c3c2)cc1 [No 26]
< 1	< 1	Cc1cc(-c2ccc3ccn(CC(=O)NCCN(C)C4CCCCC4)c3c2)ccc1F [No 33]
< 1	< 1	CN(CCNC(=O)Cn1ccc2ccc(-c3ccc(F)cc3)cc21)C1CCCCC1 [No 23]

The next lines start with the molecule.

Compound	IC50 [1] [µM]	IC50 [2] [µM]
CCCCc1ccc(-c2ccc3ccn(CC(=O)NCCN(C)C4CCCCC4)c3c2)cc1 [No 31]	< 1	1 to 10
Cc1cc(C)cc(-c2ccc3ccn(CC(=O)NCCN(C)C4CCCCC4)c3c2)c1 [No 32]	< 1	1 to 10
CN(CCNC(=O)Cn1ccc2ccc(-c3ccc(Cl)c(Cl)c3)cc21)C1CCCCC1 [No 27]	< 1	< 1
CN(CCNC(=O)Cn1ccc2ccc(-c3ccc4c(ccn4C)c3)cc21)C1CCCCC1 [No 35]	< 1	1 to 10
CN(CCNC(=O)Cn1ccc2ccc(-c3cccc(C#N)c3)cc21)C1CCCCC1 [No 28]	1 to 10	1 to 10
